The record followed here is patent US8580784B2, “Method for treating a disease related to the glucocorticoid receptor” (Santen Pharmaceutical Co., Ltd., priority 2006, dated 2013).

What is called inhibition is the drop in the measured response relative to a control, in per cent.

SMILES strings stand for the structures.

This test has as its target T1, Recombinant human GR (Homo sapiens, UniProt P04150).
T1 construct: purchased Invitrogen P2816
T1 sequence (P04150 1-777): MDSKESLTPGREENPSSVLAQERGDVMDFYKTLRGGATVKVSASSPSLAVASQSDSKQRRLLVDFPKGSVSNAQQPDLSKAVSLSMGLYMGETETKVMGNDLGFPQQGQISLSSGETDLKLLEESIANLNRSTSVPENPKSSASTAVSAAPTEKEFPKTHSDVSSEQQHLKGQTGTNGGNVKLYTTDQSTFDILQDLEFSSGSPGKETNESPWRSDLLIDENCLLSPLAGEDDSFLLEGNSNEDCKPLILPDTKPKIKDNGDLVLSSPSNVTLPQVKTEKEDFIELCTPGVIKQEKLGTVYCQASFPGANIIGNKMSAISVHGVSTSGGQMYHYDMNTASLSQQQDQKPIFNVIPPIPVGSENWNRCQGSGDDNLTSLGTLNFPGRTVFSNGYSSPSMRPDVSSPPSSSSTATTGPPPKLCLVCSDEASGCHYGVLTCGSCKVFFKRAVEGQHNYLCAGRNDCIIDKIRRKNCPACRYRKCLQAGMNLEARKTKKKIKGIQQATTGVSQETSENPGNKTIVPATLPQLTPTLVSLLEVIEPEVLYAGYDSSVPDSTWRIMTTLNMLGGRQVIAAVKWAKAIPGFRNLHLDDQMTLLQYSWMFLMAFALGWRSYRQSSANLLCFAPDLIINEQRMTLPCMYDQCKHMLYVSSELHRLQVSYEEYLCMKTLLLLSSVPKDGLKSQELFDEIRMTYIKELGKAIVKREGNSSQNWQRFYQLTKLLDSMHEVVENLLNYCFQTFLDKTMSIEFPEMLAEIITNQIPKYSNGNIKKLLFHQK
The experiment in a line: Evaluation test for binding activity to glucocorticoid receptor: receptor competitor assay by fluorescence polarization (Invitrogen GR competitor assay kit, cat No. P2816). Conditions: 20 μM test compound solution, 10 μL per well plus 5 μL 4×GS1 and 5 μL 4×GR solution; room temperature 2 to 4 hours; a ratio of 100% or more is indicated by 100%. Here is the method: A detailed explanation of this matter will be described in the section of “Pharmacological Test” in Examples described below. In order to find the usefulness of the present compound as a pharmaceutical, a glucocorticoid receptor competitor assay was carried out by a fluorescence polarization method by using a glucocorticoid receptor competitor assay kit (manufactured by Invitrogen, cat No. P2816) to study the glucocorticoid receptor binding activity of the present compound.
1. Evaluation Test for Binding Activity to Glucocorticoid Receptor (hereinafter referred to as “GR”)
In order to evaluate a binding activity to GR, a receptor competitor assay was carried out by a fluorescence polarization method. In the assay, a GR competitor assay kit (manufactured by Invitrogen, cat No. P2816) was used, and a procedure was carried out according to the protocol attached to the kit. Hereinafter, the specific method will be described.
(Preparation of Reagents)
GR screening buffer: A buffer containing 10 mM potassium phosphate (pH 7.4), 20 mM sodium molybdate (Na2MoO4), 0.1 mM ethylene diamine tetraacetic acid (EDTA), 5 mM dithiothreitol (DTT), 0.1 mM stabilizing peptide and 2% dimethylsulfoxide was prepared.
4×GS1 solution: Fluormone™ GS1, which is a fluorescent glucocorticoid ligand, was diluted with GR screening buffer, whereby a 4 nM solution was prepared.
4×GR solution: Recombinant human GR was diluted with GR screening buffer, whereby a 16 nM solution was prepared.
(Preparation of Test Compound Solution)
After a test compound was dissolved in dimethylsulfoxide, the resulting solution was diluted with GR screening buffer, whereby a 20 μM test compound solution was prepared.
(Test Method and Measurement Method)
1) The test compound solution was added in an amount of 10 μL into each well of a 384-well plate, and then, 4×GS1 solution and 4×GR solution were added in an amount of 5 μL into each well, respectively.
2) The plate was incubated in a dark place at room temperature for 2 to 4 hours.
3) By using a multimode plate reader, Analyst™ HT (manufactured by LJL Biosystems), fluorescence polarization of each well was measured. As the blank, a well containing GR screening buffer in place of the test compound and 4×GS1 solution was used.
4) The same procedure as that in the above 1) to 3) was carried out except that GR screening buffer was used in place of the test compound solution, and the obtained result was taken as the negative control.
5) The same procedure as that in the above 1) to 3) was carried out except that 2 mM dexamethasone was used in place of the test compound solution, and the obtained result was taken as the positive control.
(Calculation Equation of GR Binding Ratio)
A GR binding ratio (%) was calculated from the following equation. GR binding ratio(%)=100×[1−(fluorescence polarization of test compound solution−fluorescence polarization of positive control solution)/(fluorescence polarization of negative control solution−fluorescence polarization of positive control solution)] (Test Results and Discussion)
(In general: Polarisation of emitted light reports the rotation of a fluorescent probe.)
As to `COc1ccccc1NCc1c(-c2ccc(OC(=O)c3ccccc3F)cc2OC)ccc2c1C(C)=CC(C)(C)N2` [Compound 1-12, 6-[4-(2-Fluorobenzoyloxy)-2-methoxyphenyl]-5-(2-methoxyphenylaminomethyl)-2,2,4-trimethyl-1,2-dihydroquinoline], the inhibition at 20 µM (stock) was 99%.

Consider `COc1ccccc1NCc1c(-c2ccc(OC(=O)c3ccccc3SC)cc2OC)ccc2c1C(C)=CC(C)(C)N2` [Compound 1-26, 6-[2-Methoxy-4-(2-methylthiobenzoyloxy)phenyl]-5-(2-methoxyphenylaminomethyl)-2,2,4-trimethyl-1,2-dihydroquinoline], for which the inhibition at 20 µM (stock) amounted to 90%.

As for `COc1ccccc1NCc1c(-c2ccc(OC(=O)c3cccs3)cc2OC)ccc2c1C(C)=CC(C)(C)N2` [Compound 1-15, 5-(2-Methoxyphenylaminomethyl)-6-[2-methoxy-4-(thiophen-2-ylcarbonyloxy)phenyl]-2,2,4-trimethyl-1,2-dihydroquinoline], the inhibition at 20 µM (stock) was 99%.

Regarding `COc1cc(OC(=O)c2ccco2)ccc1-c1ccc2c(c1CNc1cc(F)ccc1C)C(C)=CC(C)(C)N2` [Compound 1-17, 5-(5-Fluoro-2-methylphenylaminomethyl)-6-[4-(furan-2-ylcarbonyloxy)-2-methoxyphenyl]-2,2,4-trimethyl-1,2-dihydroquinoline], the inhibition at 20 µM (stock) was found to be 99%.

For `COc1ccccc1NCc1c(-c2ccc(OC(=O)c3occc3C)cc2OC)ccc2c1C(C)=CC(C)(C)N2` [Compound 1-29, 6-[2-Methoxy-4-(3-methylfuran-2-ylcarbonyloxy)phenyl]-5-(2-methoxyphenylaminomethyl)-2,2,4-trimethyl-1,2-dihydroquinoline], the inhibition at 20 µM (stock) is 93%.

On to `COc1ccccc1NCc1c(-c2ccc(OC(=O)c3ccccc3Cl)cc2OC)ccc2c1C(C)=CC(C)(C)N2` [Compound 1-10, 6-[4-(2-Chlorobenzoyloxy)-2-methoxyphenyl]-5-(2-methoxyphenylaminomethyl)-2,2,4-trimethyl-1,2-dihydroquinoline], for which the inhibition at 20 µM (stock) came to 93%.

For `COc1ccccc1NCc1c(-c2ccc(OC(=O)C(C)C)cc2OC)ccc2c1C(C)=CC(C)(C)N2` [Compound 1-14, 6-(4-Isopropylcarbonyloxy-2-methoxyphenyl)-5-(2-methoxyphenylaminomethyl)-2,2,4-trimethyl-1,2-dihydroquinoline], the inhibition at 20 µM (stock) worked out at 99%.

As for `CCCS(=O)(=O)Oc1ccc(-c2ccc3c(c2CNc2ccccc2OC)C(C)=CC(C)(C)N3)c(OC)c1` [Compound 2-1, 5-(2-Methoxyphenylaminomethyl)-6-(2-methoxy-4-propylsulfonyloxyphenyl)-2,2,4-trimethyl-1,2-dihydroquioline], the inhibition at 20 µM was determined as 100%.

In the case of `COc1cc(OC(=O)N2CCOCC2)ccc1-c1ccc2c(c1CNc1cc(F)ccc1C)C(C)=CC(C)(C)N2` [Compound 1-45, 5-(5-Fluoro-2-methylphenylaminomethyl)-6-[2-methoxy-4-(morpholin-4-ylcarbonyloxy)phenyl]-2,2,4-trimethyl-1,2-dihydroquinoline], the inhibition at 20 µM (stock) stood at 100%.

Turning to `COC(=O)c1cccc(C(=O)Oc2ccc(-c3ccc4c(c3CNc3ccccc3OC)C(C)=CC(C)(C)N4)c(OC)c2)c1` [Compound 1-18, 6-[2-Methoxy-4-(3-methoxycarbonylbenzoyloxy)phenyl]-5-(2-methoxyphenylaminomethyl)-2,2,4-trimethyl-1,2-dihydroquinoline], the inhibition at 20 µM (stock) was 86%.

For `COc1ccccc1NCc1c(-c2ccc(OC(=O)c3cscn3)cc2OC)ccc2c1C(C)=CC(C)(C)N2` [Compound 1-30, 5-(2-Methoxyphenylaminomethyl)-6-[2-methoxy-4-(thiazol-4-ylcarbonyloxy)phenyl]-2,2,4-trimethyl-1,2-dihydroquinoline], the inhibition at 20 µM (stock) came out at 94%.

In the case of `COc1cc(OC(=O)c2ccncc2)ccc1-c1ccc2c(c1CNc1cc(F)ccc1C)C(C)=CC(C)(C)N2` [Compound 1-34, 5-(5-Fluoro-2-methylphenylaminomethyl)-6-[2-methoxy-4-(pyridin-4-ylcarbonyloxy)phenyl]-2,2,4-trimethyl-1,2-dihydroquinoline], the inhibition at 20 µM (stock) amounted to 100%.

For the molecule `COc1ccccc1NCc1c(-c2ccc(OC(=O)c3ccccc3)cc2OC)ccc2c1C(C)=CC(C)(C)N2` [Compound 1-3, 6-(4-Benzoyloxy-2-methoxyphenyl)-5-(2-methoxyphenylaminomethyl)-2,2,4-trimethyl-1,2-dihydroquioline], the inhibition at 20 µM (stock) was found to be 95%.

For the molecule `COc1ccccc1NCc1c(-c2ccc(OC(=O)c3cccnc3OC)cc2OC)ccc2c1C(C)=CC(C)(C)N2` [Compound 1-32, 6-[2-Methoxy-4-(2-methoxypyridin-3-ylcarbonyloxy)phenyl]-5-(2-methoxyphenylaminomethyl)-2,2,4-trimethyl-1,2-dihydroquinoline], the inhibition at 20 µM (stock) is 90%.

In the case of `COc1ccccc1NCc1c(-c2ccc(OC(=O)c3cccc(C(C)=O)c3)cc2OC)ccc2c1C(C)=CC(C)(C)N2` [Compound 1-27, 6-[4-(3-Acetylbenzoyloxy)-2-methoxyphenyl]-5-(2-methoxyphenylaminomethyl)-2,2,4-trimethyl-1,2-dihydroquinoline], the inhibition at 20 µM (stock) is 87%.

For the molecule `COc1ccccc1NCc1c(-c2ccc(OC(=O)c3cccnc3)cc2OC)ccc2c1C(C)=CC(C)(C)N2` [Compound 1-8, 5-(2-Methoxyphenylaminomethyl)-6-[2-methoxy-4-(pyridin-3-ylcarbonyloxy)phenyl]-2,2,4-trimethyl-1,2-dihydroquinoline], the inhibition at 20 µM turned out to be 98%.

In the case of `COc1cc(OS(C)(=O)=O)ccc1-c1ccc2c(c1CNc1cc(F)ccc1C)C(C)=CC(C)(C)N2` [Compound 2-11, 5-(5-Fluoro-2-methylphenylaminomethyl)-6-(2-methoxy-4-methylsulfonyloxyphenyl)-2,2,4-trimethyl-1,2-dihydroquioline], the inhibition at 20 µM (stock) came out at 100%.

Consider `COc1ccccc1NCc1c(-c2ccc(OS(C)(=O)=O)cc2OC)ccc2c1C(C)=CC(C)(C)N2` [Compound 2-5, 6-(2-Methoxy-4-methylsulfonyloxyphenyl)-5-(2-methoxyphenylaminomethyl)-2,2,4-trimethyl-1,2-dihydroquioline], for which the inhibition at 20 µM (stock) was 93%.

For the molecule `COc1cc(OC(=O)c2ccccc2F)ccc1-c1ccc2c(c1CNc1cc(F)ccc1C)C(C)=CC(C)(C)N2` [Compound 1-35, 6-[4-(2-Fluorobenzoyloxy)-2-methoxyphenyl]-5-(5-fluoro-2-methylphenylaminomethyl)-2,2,4-trimethyl-1,2-dihydroquinoline], the inhibition at 20 µM (stock) is 100%.

`COc1cc(OC(=O)c2cccnc2OC)ccc1-c1ccc2c(c1CNc1cc(F)ccc1C)C(C)=CC(C)(C)N2` [Compound 1-41, 5-(5-Fluoro-2-methylphenylaminomethyl)-6-[2-methoxy-4-(2-methoxypyridin-3-ylcarbonyloxy)phenyl]-2,2,4-trimethyl-1,2-dihydroquinoline]: the inhibition at 20 µM (stock) was found to be 100%.
